# Paper PMC6934949, “Calixmexitil: Calixarene-based Cluster of Mexiletine with Amplified Anti-myotonic Activity as A Novel Use-dependent Sodium Channel Blocker” (Iranian Journal of Pharmaceutical Research : IJPR, 2019)
# System: T1, sodium channel (voltage-gated, skeletal muscle)
# T1 construct: gene scn4a; native channel in single semitendinosus muscle fibers
# Assay: three vaseline gap voltage clamp of Na+ current, phasic ([…] Hz use-dependent) block
# Format: cell-based
# Conditions: read-out: Phasic block IC 50
row,Structure (SMILES),IC50
1,"Cc1cccc(C)c1OCC(C)N (racemic) [Mexiletine, 1-(2,6-dimethylphenoxy)-2-propanamine]",31 µM
2,"CC(N)COc1c2cccc1Cc1cccc(c1OCC(C)N)Cc1cccc(c1OCC(C)N)Cc1cccc(c1OCC(C)N)C2 (centres unmarked) [compound 4, Calixmexitil]",3 µM
